One compound from US20080194528A1, “Pharmaceutical compositions comprising organopolysiloxane elastomers and solubilized bioactive compounds” (GALDERMA RESEARCH AND DEVELOPMENT, priority 2005, published 2008) can be followed below.

A value given as a limit tells only on which side of the number the result lay.

The series is described as follows: Active ingredient solubility tests in various solvents. It is filed as physicochemical. As for the experimental part:
The solubility of {4-[6-ethyl-4′-(1-ethyl-1-hydroxypropyl)-2′-propylbiphenyl-3-yloxymethyl]-2-hydroxymethylphenyl}methanol was tested in various solvents.

With `CCCc1cc(C(O)(CC)CC)ccc1-c1cc(OCc2ccc(CO)c(CO)c2)ccc1CC` [compound 3, {4-[6-ethyl-4′-(1-ethyl-1-hydroxypropyl)-2′-propylbiphenyl-3-yloxymethyl]-2-hydroxymethylphenyl}methanol], the “Max sol (% w/w)” value runs as follows: (in Arlamol E) 1.033 % w/w; (in Cremophor RH40) 3.989 % w/w; (in Ethanol 95) greater than 20 % w/w; (in Eutanol G) 0.322 % w/w; (in IPP) 0.1654 % w/w; (in Labrafil M1944CS) 0.936 % w/w. Also, the “Max sol (% w/w)” value runs as follows: (in Miglyol 812) 0.3167 % w/w; (in PEG 400) 6.894 % w/w; (in Primol 352) 0.0009 % w/w; (in Propylene Glycol) 2.3351 % w/w; (in Sweet almond oil) 0.0932 % w/w; (in Transcutol) greater than 20 % w/w.
